Experimental data published in the Deep4Chem optical property database.
Each block holds one compound with its values, some of them ahead of it.

Assay: solvent given as SMILES

Structure (SMILES): C(=C\c1ccccn1)/c1ccc(N(c2ccc(/C=C/c3ccccn3)cc2)c2ccc(-c3nc4ccccc4nc3-c3ccc(N(c4ccc(/C=C/c5ccccn5)cc4)c4ccc(/C=C/c5ccccn5)cc4)cc3)cc2)cc1
- emission maximum (in C1CCOC1): 548 nm
- emission maximum (in Cc1ccccc1): 533 nm

Structure (SMILES): c1ccc([B-]2(c3ccccc3)Oc3ccc4ccccc4c3-c3c4ccccc4nc[n+]32)cc1
- emission maximum (in Cc1ccccc1): 543 nm

Structure (SMILES): COC(=O)C(NC(=O)OC(C)(C)C)c1ccc2oc(-c3cc(OC)c(OC)cc3OC)nc2c1 (configuration not stated)
- emission maximum (in CC1CCCCC1): 357 nm
- emission maximum (in CC#N): 383 nm
- emission maximum (in CO): 389 nm

Structure (SMILES): CCCCC(CC)CN1C(=O)c2cc(Oc3ccc(OC)cc3)c3c4c(Oc5ccc(C(C)(C)C)cc5)cc5c6c(cc(Oc7ccc(C(C)(C)C)cc7)c(c7c(Oc8ccc(OC)cc8)cc(c2c37)C1=O)c64)C(=O)N(c1c(C(C)C)cccc1C(C)C)C5=O (configuration not stated)
- emission maximum (in Cc1ccccc1): 608 nm

Structure (SMILES): CN(C)CCN(Cc1c2ccccc2cc2ccccc12)c1ccc([N+](=O)[O-])cc1
- emission maximum (in C1CCCCC1): 411 nm
- emission maximum (in C1CCOC1): 414 nm
- emission maximum (in CC#N): 389 nm
- emission maximum (in CC(C)=O): 387 nm
- emission maximum (in CCO): 410 nm
- emission maximum (in CN(C)C=O): 389 nm
- emission maximum (in CO): 389 nm
- emission maximum (in ClC(Cl)Cl): 415 nm

Structure (SMILES): CCCCC1(c2ccccc2)Nc2c(-c3ccc(N(C)c4ccccc4)cc3)ccc(-c3ccc(N(C)c4ccccc4)cc3)c2N=C1c1ccccc1 (configuration not stated)
- emission maximum (in C1CCOC1): 580 nm
- emission maximum (in CC#N): 602 nm
- emission maximum (in CCCCCC): 553 nm
- emission maximum (in CN(C)C=O): 603 nm
- emission maximum (in Cc1ccccc1): 573 nm
- emission maximum (in ClC(Cl)Cl): 589 nm

Structure (SMILES): CC1=[N+]2C(=C(c3ccc(C#N)cc3)c3ccc(C)n3[B-]2(F)F)C=C1
- emission maximum (in C1CCCCC1): 539 nm
- emission maximum (in C1CCOC1): 540 nm
- emission maximum (in CC#N): 537 nm
- emission maximum (in CCOC(C)=O): 537 nm
- emission maximum (in CO): 538 nm
- emission maximum (in Cc1ccccc1): 543 nm
- emission maximum (in ClC(Cl)Cl): 543 nm

Structure (SMILES): CON(OC)c1cc2c3cc(-c4c(C)cc(C)cc4C)cc4c5cc(-c6c(C)cc(C)cc6C)cc6c7cc(B(c8c(C)cc(C)cc8C)c8c(C)cc(C)cc8C)cc8c9cc(-c%10c(C)cc(C)cc%10C)cc%10c%11cc(-c%12c(C)cc(C)cc%12C)cc%12c(c1)c2c1c(c43)c(c65)c(c78)c(c9%10)c1c%11%12
- emission maximum (in C1CCOC1): 591 nm
- emission maximum (in CC(C)=O): 615 nm
- emission maximum (in CCCCCC): 490 nm
- emission maximum (in Cc1ccccc1): 510 nm
- emission maximum (in ClC(Cl)Cl): 545 nm
- emission maximum (in ClCCl): 585 nm

Structure (SMILES): N#Cc1cccc2c(N)c(-c3nn([C@H]4C[C@H](O)[C@@H](CO)O4)c4ncnc(N)c34)ccc12
- emission maximum (in C1COCCO1): 488 nm
- emission maximum (in CC#N): 513 nm
- emission maximum (in CC(C)O): 514 nm
- emission maximum (in CCO): 520 nm
- emission maximum (in CCOC(C)=O): 494 nm
- emission maximum (in CN(C)C=O): 524 nm
- emission maximum (in CO): 527 nm
- emission maximum (in CS(C)=O): 534 nm
- emission maximum (in OCC(O)CO): 522 nm
- emission maximum (in OCCO): 529 nm

Structure (SMILES): FC(F)(F)C(F)(F)C(F)(F)C1=NC2=C(Br)C=C3c4cc(Br)c5nc(C(F)(F)C(F)(F)C(F)(F)F)nc6c(Br)cc(c4c56)=C4C=C(Br)C(=N1)C2C34 (configuration not stated)
- emission maximum (in C1CCOC1): 486 nm

Structure (SMILES): O=C(c1ccc(N2c3ccccc3Oc3ccccc32)cc1)c1ccc(N2c3ccccc3Oc3ccccc32)cc1
- emission maximum (in Cc1ccccc1): 509 nm
- emission maximum (in c1cc(-n2c3ccccc3c3ccccc32)cc(-n2c3ccccc3c3ccccc32)c1): 538 nm

Structure (SMILES): O=C(N/N=C/c1ccccc1O)c1ccccc1
- emission maximum (in C1CCOC1): 306 nm
- emission maximum (in CC#N): 373 nm
- emission maximum (in CC(C)=O): 426 nm
- emission maximum (in CCO): 429 nm
- emission maximum (in CN(C)C=O): 458 nm
- emission maximum (in CS(C)=O): 552 nm
- emission maximum (in ClCCl): 392 nm

Structure (SMILES): C(#Cc1ccc(-n2c3ccccc3c3ccccc32)cc1)c1ccccc1
- emission maximum (in CC#N): 443 nm
- emission maximum (in CO): 401 nm
- emission maximum (in Cc1ccccc1): 364 nm
- emission maximum (in ClC(Cl)Cl): 379 nm
- emission maximum (in ClCCl): 390 nm

Structure (SMILES): COc1cc2c3c4c(c5ccc(C(C)(C)C)cc5c5c(OC)c(OC)c(OC)c(c2c(OC)c1OC)c45)=[N+]1C3=Nc2c3c4cc(OC)c(OC)c(OC)c4c4c(OC)c(OC)c(OC)c5c6cc(C(C)(C)C)ccc6c(c3c54)n2[B-]1(F)F
- emission maximum (in Cc1ccccc1): 873 nm

Structure (SMILES): Cn1c2ccc(S(=O)(=O)Cl)cc2c(=O)c2cc(S(=O)(=O)Cl)ccc21
- emission maximum (in CS(C)=O): 424 nm

Structure (SMILES): CN(C)c1ccc(/C=C/c2cccnn2)cc1
- emission maximum (in C1CCOC1): 476 nm
- emission maximum (in CC#N): 509 nm
- emission maximum (in CCCCCCC): 459 nm
- emission maximum (in CS(C)=O): 518 nm
- emission maximum (in ClCCl): 480 nm

Structure (SMILES): CN(C)c1ccc(-c2nc3cccnc3[nH]2)cc1
- emission maximum (in C1CCCCC1): 359 nm
- emission maximum (in CC#N): 408 nm

Structure (SMILES): CON(C)C(=O)c1ccc(/C=C/c2ccc(/C=C/c3ccc(C(=O)N(C)OC)cc3)cc2)cc1
- emission maximum (in c1ccccc1): 434 nm

Structure (SMILES): Cc1cc2c(o1)=CC1=C(C(F)(F)F)c3cc4oc(C)cc4n3[B-](F)(F)[N+]=21
- emission maximum (in ClC(Cl)Cl): 620 nm

More lines, now with the values ahead:

- emission maximum (in ClCCl): 600 nm
Structure (SMILES): CC(C)(C)c1ccc2c(c1)c1cc(C(C)(C)C)ccc1n2-c1ccc(N(c2ccc(-c3ccc(-c4ccc(N(c5ccc(-n6c7ccc(C(C)(C)C)cc7c7cc(C(C)(C)C)ccc76)cc5)c5ccc(-n6c7ccc(C(C)(C)C)cc7c7cc(C(C)(C)C)ccc76)cc5)cc4)c4nsnc34)cc2)c2ccc(-n3c4ccc(C(C)(C)C)cc4c4cc(C(C)(C)C)ccc43)cc2)cc1

- emission maximum (in ClCCl): 558 nm
- emission maximum (in c1ccccc1): 522 nm
Structure (SMILES): CCCCN(CCCC)c1ccc2c(c1)C#CC#Cc1cc(C(F)(F)F)ccc1C#Cc1cc(c3cc1C#Cc1ccc(N(CCCC)CCCC)cc1C#CC#Cc1cc(C(F)(F)F)ccc1C#C3)C#C2

- emission maximum (in C1CCCCC1): 400 nm
- emission maximum (in CC#N): 506 nm
Structure (SMILES): Cc1ccc(/C=C/c2ccccc2-[n+]2noc([O-])c2-c2ccccc2)cc1

- emission maximum (in ClCCl): 441 nm
Structure (SMILES): CCN(CC)c1ccc2c(c1)oc(=O)c1cnc3c(cnn3-c3ccccc3)c12

- emission maximum (in ClCCl): 571 nm
Structure (SMILES): CCC(C)[Si](C#Cc1c2nc3c4ccccc4c(=O)c4ccccc4c3nc2c(C#C[Si](C(C)CC)(C(C)CC)C(C)CC)c2nc3c4ccccc4c(=O)c4ccccc4c3nc12)(C(C)CC)C(C)CC (configuration not stated)

- emission maximum (in ClCCl): 419 nm
Structure (SMILES): CC(C)(C)c1ccc(-n2c(-c3ccc(-c4ccc(N(c5ccccc5)c5ccccc5)cc4)s3)nc3c4ccccc4c4ccccc4c32)cc1

- emission maximum (in CC#N): 478 nm
- emission maximum (in CO): 496 nm
- emission maximum (in ClCCl): 471 nm
Structure (SMILES): COc1cccc(-c2[nH]c(=O)n3c2-c2ccccc2C3=O)c1O

- emission maximum (in ClC(Cl)Cl): 429 nm
Structure (SMILES): N#Cc1cc2ccc3cc(C#N)c4ccccc4c3c2c2ccccc12

- emission maximum (in C1CCOC1): 505 nm
Structure (SMILES): COc1cc2c(cc1-c1cccs1)Cc1c3c(c4c(c1-2)-c1cc(OC)c(-c2cccs2)cc1C4)C(=O)N(CCC(C)C)C3=O

- emission maximum (in ClCCl): 557 nm
Structure (SMILES): COc1ccc(N(c2ccc(OC)cc2)c2ccc(-c3ccc(-c4ccc5nc6ccccc6c(=O)n5c4)cc3)cc2)cc1

- emission maximum (in CCCCCC): 536 nm
- emission maximum (in c1ccccc1): 605 nm
Structure (SMILES): O=C1OC(=O)c2ccc(N(c3ccccc3)c3ccc4ccc5cccc6ccc3c4c56)c3cccc1c23

- emission maximum (in CC(C)O): 551 nm
- emission maximum (in CCO): 550 nm
- emission maximum (in CO): 542 nm
- emission maximum (in O): 538 nm
Structure (SMILES): O=C([O-])c1ccccc1-c1c2cc(Br)c(=O)c(Br)c-2oc2c(Br)c([O-])c(Br)cc12

- emission maximum (in ClCCl): 448 nm
Structure (SMILES): COC(=O)c1ccc(C(=O)NC(C)(C)C)c2c1ccc1c3ccccc3c3ccccc3c12

- emission maximum (in ClCCl): 450 nm
Structure (SMILES): Fc1ccc(C#Cc2c(C#Cc3ccc(F)cc3)c(C#Cc3ccc(F)cc3)c(C#Cc3ccc(F)cc3)c(C#Cc3ccc(F)cc3)c2C#Cc2ccc(F)cc2)cc1

- emission maximum (in CC#N): 515 nm
- emission maximum (in ClCCl): 512 nm
Structure (SMILES): COc1ccc(-c2cc3c(s2)c(C(C)=O)cc(=O)n3Cc2ccccc2)cc1

- emission maximum (in CCCCCC): 568 nm
- emission maximum (in ClCCl): 593 nm
Structure (SMILES): CC(C)[Si](C#Cc1c2ccccc2c(C#C[Si](C(C)C)(C(C)C)C(C)C)c2nc3cc4c(cc3nc12)C1c2ccccc2C4c2ccccc21)(C(C)C)C(C)C

- emission maximum (in ClCCl): 442 nm
Structure (SMILES): CCOC(=O)c1c(-c2cc3c(ccc4ccccc43)oc2=O)nn(-c2cccc(Cl)c2)c1C(=O)OCC

- emission maximum (in ClCCl): 466 nm
Structure (SMILES): Cc1cn2cc(-c3ccc(-c4ccccc4)cc3)[n-][n+]2c1

- emission maximum (in C1COCCO1): 709 nm
- emission maximum (in CCO): 699 nm
- emission maximum (in CN(C)C=O): 702 nm
- emission maximum (in ClC(Cl)Cl): 709 nm
Structure (SMILES): CCCCCCCN1C(=CC2=C([O-])C(=CC3=[N+](CCCCCCC)c4ccccc4C3(C)C)C2=C(C#N)C#N)Sc2ccccc21

- emission maximum (in ClCCl): 368 nm
Structure (SMILES): c1ccc2c(c1)c1ccccc1c1ncncc21

- emission maximum (in CO): 605 nm
Structure (SMILES): CCCCCCc1cc(B(c2c(C)cc(C)cc2C)c2c(C)cc(C)cc2C)c(-c2sc(CCCCCC)cc2P(=O)(c2ccccc2)c2ccccc2)s1

- emission maximum (in c1cc(-c2cccc(-n3c4ccccc4c4ccccc43)c2)cc(-n2c3ccccc3c3ccccc32)c1): 450 nm
Structure (SMILES): Cc1cc(-c2nc(-c3ccccc3)nc(-c3ccccc3)n2)ccc1-c1ccc2c(c1)C1(c3ccccc3-c3ccccc31)c1ccccc1N2c1ccccc1

- emission maximum (in C1CCCCC1): 328 nm
- emission maximum (in CC#N): 348 nm
- emission maximum (in CO): 349 nm
- emission maximum (in O): 350 nm
Structure (SMILES): CCOC(=O)COc1ccccc1C(c1c(C)[nH]c2ccccc12)c1c(C)[nH]c2ccccc12

- emission maximum (in CC#N): 427 nm
Structure (SMILES): c1ccc(C[n+]2cc3ccc4c[n+](Cc5ccccc5)cc5ccc(c2)c3c45)cc1

- emission maximum (in ClC(Cl)Cl): 433 nm
Structure (SMILES): CCCCOc1ccc(-c2cc(-c3ccc(OCCCC)cc3)c3ccc4c(-c5ccc(OCCCC)cc5)cc(-c5ccc(OCCCC)cc5)c5ccc2c3c54)cc1

- emission maximum (in ClC(Cl)Cl): 660 nm
Structure (SMILES): CCCCCCCCCCCCOc1cc2c3cc(OCCCCCCCCCCCC)c(OCCCCCCCCCCCC)cc3c3c(cc(OCCCCCCCCCCCC)c4nc5cc(C#Cc6ccc(OCCC(C)CCCC(C)C)cc6)c(C#Cc6ccc(OCCC(C)CCCC(C)C)cc6)cc5nc43)c2cc1OCCCCCCCCCCCC (configuration not stated)

- emission maximum (in ClC(Cl)Cl): 526 nm
Structure (SMILES): C(=N\c1ccc(-c2cn3nc(-c4cccs4)sc3n2)cc1)/c1c2ccccc2cc2ccccc12

- emission maximum (in CO): 659 nm
- emission maximum (in CS(C)=O): 660 nm
- emission maximum (in O): 652 nm
Structure (SMILES): CCCN1/C(=C/C=C/C=C/C2=[N+](CCC)c3ccccc3C2(C)C)C(C)(C)c2ccccc21

- emission maximum (in ClCCl): 403 nm
Structure (SMILES): COc1cc2c(cc1OC)C1=C[C@H](c3ccc(C)cc3)C3(C(C#N)=C(C#N)N1CC2)c1ccccc1-c1ccccc13
